The text below walks through data of patent publication US6271215A, “Sulfated oligosaccharides having anticoagulant/antithrombotic activity” (The Australian National University, priority 1997, dated 2001).

For one experiment, the system named is human plasma. Description: Activated partial thromboplastin time (APTT) test, human plasma. In kind it is biochemical. As to conditions: for Increase in Coagulation Time: increase in coagulation time (seconds) from a 1 μg/ml increase in concentration, linear regression, pooled plasma from 90 donors; for anticoagulant activity (in words): APTT test; for Relative Increase in Coagulation Time: Human plasma, vs untreated control; for Coagulation Time: PI-88 8.6 μg/ml. The source says: Heparin (anticoagulant activity 120 U/mg) is included for comparison. Data obtained with pooled plasma from 90 donors, the coagulation time of the plasma being 30.8 seconds in the absence of inhibitors. Results representative of four separate experiments. Table 1 summarises the anticoagulant activity of 19 sulfated oligosaccharides, as measured by the activated partial thromboplastin time (APTT) test. Similar results were obtained with the thrombin time test. […] Chain length, monosaccharide makeup and linkage, all appear to be critical factors. […] Furthermore, a striking feature of the maltose series is that chain elongation y a single residue from the maltotetraose to maltopentaose results in a 19-fold increase in anticoagulant activity. […] The glucose series of oligosaccharides emphasizes the importance of monosaccharide linkage on activity. […] There are additional, more subtle, effects of monosaccharide linkage on anticoagulant activity. […] Values | obtained from a linear regression analysis of the coagulation data. |^a Coagulation times estimated using the APTT test. Similar results | were obtained in duplicate assays. Concentrations of heparin and | mannopentaose phosphate SO4 (PI-88) were used which prolonged the |^a Coagulation times estimated by the APTT test. Data expressed as fold | increase in coagulation time induced by the anticoagulant compared with | untreated control.

The subject of a further experiment is Human platelet. Description: Collagen- or ADP-induced platelet aggregation (platelet aggregometer). The experiment is classed as cell-based. The settings on record: for Relative Rate of Platelet Aggregation, ADP-induced Aggregation: ADP 10 μM, control without PI-88 81 ± 1; for Relative Rate of Platelet Aggregation, ADP-induced Aggregation / Relative Rate of Platelet Aggregation, Collagen-induced Aggregation: ± SD; for Relative Rate of Platelet Aggregation, Collagen-induced Aggregation: collagen 9 μg/ml, control without PI-88 114 ± 8. Here is the method: ^a Human platelet aggregation induced by either collagen (9 μg/ml)
or ADP (10 μM) and relative rates of platelet aggregation estimated, in
the presence or absence of PI-88, using a platelet aggregometer. Data ±
SD representative of two platelet donors.

In a further experiment the test system is rat plasma. Description: APTT test, rat plasma. The experiment is classed as biochemical. As to conditions: for Relative Increase in Coagulation Time: APTT, Rat plasma, vs untreated control. The source says: (§1) Some additional biological properties of one of the sulfated oligosaccharides, PI-88, were defined. […] Protamine is frequently used clinically to reverse the anticoagulant effects of heparin and Fragmin. […] Finally, PI-88 was examined for its ability to act as an anticoagulant in a range of mammalian species. […] Thus, sulfated oligosaccharides potentially can be used as anticoagulants/antithrombotics not only in humans but in a wide range of mammalian species.
(§2) ^a Coagulation times estimated by the APTT test. Data expressed as fold
(§3) increase in coagulation time induced by the anticoagulant compared with […]

For a further experiment, the system named is rabbit plasma. Description: APTT test, rabbit plasma. The experiment is classed as biochemical. As to conditions: for Relative Increase in Coagulation Time: APTT, Rabbit plasma, vs untreated control.
Description: as §1, §2, §3

Another experiment relates to dog plasma. The experiment can be described thus: APTT test, dog plasma. As to conditions: for Relative Increase in Coagulation Time: APTT, Dog plasma, vs untreated control. In kind it is biochemical.
Description: as §1, §2, §3

The next experiment relates to heparin cofactor II. Description: Plasma free system: purified heparin cofactor II, thrombin and chromogenic thrombin substrate. In kind it is biochemical. The settings on record: data not shown. The source says: (§4) The manner by which the sulfated oligosaccharides inhibit the coagulation cascade was then investigated.
Another experiment concerns factor Xa. The experiment can be described thus: Anti-thrombin III mediated anti-factor Xa activity, chromogenic (Helena) anti-Xa assay. The experiment is classed as biochemical. The settings on record: FIG. 3. How it is done: Factor Xa activity was determined with the chromogenic (Helena) anti-Xa assay run on a Roche COBAS Fara biochemistry analyser.
as §4

Experiment [1] is described as follows: Inactivation of anticoagulant activity by protamine. In kind it is biochemical.
Description: as §1

Another experiment has as its system thrombin. The experiment can be described thus: Anti-thrombin III mediated anti-thrombin activity, chromogenic assays. In kind it is biochemical.
Description: as §4

Another experiment deals with mouse plasma. Description: APTT test, mouse plasma. The experiment is classed as biochemical. The settings on record: for Relative Increase in Coagulation Time: APTT, Mouse plasma, vs untreated control.
Description: as §1, §2, §3

The subject of another experiment is marmoset plasma. Description: APTT test, marmoset plasma. The experiment is classed as biochemical. The settings on record: for Relative Increase in Coagulation Time: APTT, Marmoset plasma, vs untreated control.
Description: as §1, §2, §3

The next experiment relates to sheep plasma. Description: APTT test, sheep plasma. In kind it is biochemical. As to conditions: for Relative Increase in Coagulation Time: APTT, Sheep plasma, vs untreated control.
Description: as §1, §2, §3

Consider Laminarihexaose SO4, for which the “Increase in Coagulation Time” value with human plasma (APTT) turned out to be 0.9 s/µg.
Take Isomaltopentaose SO4: the “anticoagulant activity (in words)” value in the experiment on human plasma is “substantially less effective anticoagulant”. Further, the “Increase in Coagulation Time” value in the experiment on human plasma (APTT) is 1.85 s/µg.
In the case of `O=S(=O)(O)OC[C@H]1O[C@@](COS(=O)(=O)O)(O[C@H]2O[C@H](COS(=O)(=O)O)[C@@H](OS(=O)(=O)O)[C@H](OS(=O)(=O)O)[C@H]2OS(=O)(=O)O)[C@@H](OS(=O)(=O)O)[C@@H]1OS(=O)(=O)O` [Sucrose SO4], the “Increase in Coagulation Time” value with human plasma (APTT) turned out to be 0.39 s/µg.
Still for that read-out and setting: under Maltoetraose SO4 stands 0.28 s/µg; under Maltose SO4, 0.31 s/µg.
As to Cellotetraose SO4, the “anticoagulant activity (in words)” value with human plasma is listed as “reasonably potent anticoagulant”. For the same molecule, the “Increase in Coagulation Time” value in the experiment on human plasma (APTT) was 4.2 s/µg.
In the case of Maltoheptaose SO4, the “anticoagulant activity (in words)” value with human plasma was “quite effective anticoagulants”. In addition, the “Increase in Coagulation Time” value in the experiment with human plasma (APTT) amounted to 5.9 s/µg.
For the molecule Mannopentaose phosphate SO2 (PI-88), the “Increase in Coagulation Time” value in the experiment with human plasma (APTT) was 5.67 s/µg.
Same read-out and setting: under Mannopentaose SO4 stands 5.32 s/µg; under Laminaritetraose SO4, 2.9 s/µg.
In the case of Maltopentaose SO4, the “anticoagulant activity (in words)” value with human plasma is on record as “quite effective anticoagulants”. For the same molecule, the “Increase in Coagulation Time” value with human plasma (APTT) turned out to be 5.25 s/µg. In addition, the “increase in anticoagulant activity on chain elongation from maltotetraose to maltopentaose” value in the experiment with human plasma (APTT, relative to the maltotetraose sulfate) is 19 fold.
As to Chitosan hexamer SO4, the “anticoagulant activity (in words)” value in the experiment with human plasma is reported as “negligible anticoagulant activity”. Further, in the experiment with human plasma (APTT), the “Increase in Coagulation Time” value came out at 0.4 s/µg.
With Maltotriose SO4, in the experiment with human plasma (APTT), the “Increase in Coagulation Time” value is 0.25 s/µg.
Still for that read-out and setting: under Mannopentaose phosphate SO4 (PI-88) stands 5.04 s/µg.
Still for that read-out and setting: under Cellohexaose SO4 stands 4.8 s/µg.
For mannopentaose phosphate sulfate [PI-88], the “Relative Increase in Coagulation Time” value is 1.42 fold in the experiment on human plasma (APTT, PI-88 2.24 μg/ml); 4.65 fold with human plasma (APTT, PI-88 22.4 μg/ml); 1.54 fold in the experiment on rat plasma (PI-88 2.24 μg/ml); above 5.88 fold in the experiment with rat plasma (PI-88 22.4 μg/ml); 1.02 fold in the experiment with rabbit plasma (PI-88 2.24 μg/ml); 1.20 fold in the experiment with rabbit plasma (PI-88 22.4 μg/ml). In addition, the “Relative Increase in Coagulation Time” value with dog plasma (PI-88 2.24 μg/ml) was 1.24 fold; with dog plasma (PI-88 22.4 μg/ml) it was 2.42 fold; in the experiment on mouse plasma (PI-88 2.24 μg/ml), 1.13 fold; in the experiment with mouse plasma (PI-88 22.4 μg/ml) it was 3.03 fold; in the experiment on marmoset plasma (PI-88 2.24 μg/ml) it was 1.40 fold; in the experiment with marmoset plasma (PI-88 22.4 μg/ml), 2.86 fold. Also, the “Relative Increase in Coagulation Time” value in the experiment with sheep plasma (PI-88 2.24 μg/ml) is given as 1.88 fold; in the experiment with sheep plasma (PI-88 22.4 μg/ml), above 4.98 fold. Besides, the “Coagulation Time” value in the experiment with human plasma (APTT, Mean ± SD of 20 normal donors) turned out to be 88.3 ± 11.9 s; with human plasma (APTT, Normal Donor 1), 77.3 s; in the experiment with human plasma (APTT, Normal Donor 2), 89.6 s; in the experiment with human plasma (APTT, Normal Donor 3) it was 94.0 s; in the experiment on human plasma (APTT, Normal Donor 4), 85.6 s; in the experiment on human plasma (APTT, Normal Donor 5) it was 101.9 s. In addition, the “Coagulation Time” value with human plasma (APTT, Normal Donor 6) came out at 95.0 s; with human plasma (APTT, Normal Donor 7) it was 115.3 s; in the experiment on human plasma (APTT, Normal Donor 8), 101.9 s; in the experiment on human plasma (APTT, Normal Donor 9), 85.2 s; with human plasma (APTT, Normal Donor 10) it was 78.0 s; with human plasma (APTT, Normal Donor 11), 93.6 s. Besides, the “Coagulation Time” value came to 82.9 s in the experiment with human plasma (APTT, Normal Donor 12); 85.5 s with human plasma (APTT, Normal Donor 13); 89.7 s in the experiment on human plasma (APTT, Normal Donor 14); 81.2 s with human plasma (APTT, Normal Donor 15); 72.6 s in the experiment on human plasma (APTT, Normal Donor 16); 108.0 s in the experiment with human plasma (APTT, Normal Donor 17). The “Coagulation Time” value with human plasma (APTT, Normal Donor 18) came out at 70.4 s; in the experiment with human plasma (APTT, Normal Donor 19), 93.6 s; in the experiment with human plasma (APTT, Normal Donor 20) it was 72.6 s. Also, the “ability to act as an anticoagulant (in words)” value in the experiment on human plasma (human plasma) is reported as “effective anticoagulant”; with rat plasma (rat plasma), “effective anticoagulant”; in the experiment on rabbit plasma (rabbit plasma) it was “only weakly active”; in the experiment with dog plasma (dog plasma) it was “effective anticoagulant”; in the experiment with mouse plasma (mouse plasma), “effective anticoagulant”; in the experiment with marmoset plasma (marmoset plasma), “effective anticoagulant”. In addition, the “ability to act as an anticoagulant (in words)” value in the experiment with sheep plasma (sheep plasma) is “effective anticoagulant”. For the same molecule, the “inhibition of collagen- and ADP-induced platelet aggregation (in words)” value in the experiment with Human platelet is “very weak inhibitor”. For the same molecule, the “Relative Rate of Platelet Aggregation, ADP-induced Aggregation” value in the experiment with Human platelet (PI-88 21 μg/ml) was 74 ± 1; with Human platelet (PI-88 210 μg/ml), 72 ± 1; in the experiment with Human platelet (PI-88 2100 μg/ml) it was 56 ± 2. In addition, the “Relative Rate of Platelet Aggregation, Collagen-induced Aggregation” value with Human platelet (PI-88 21 μg/ml) came to 97 ± 8; in the experiment with Human platelet (PI-88 210 μg/ml), 86 ± 10; in the experiment on Human platelet (PI-88 2100 μg/ml), 79 ± 0. Besides, the “enhancement of the ability of heparin cofactor II to inhibit thrombin (in words)” value with heparin cofactor II was “as effectively as heparin and dermatan sulfate”. Besides, the “fold less active than heparin or LMW heparin (Fragmin), anti-thrombin III mediated factor Xa inhibitory activity” value in the experiment with factor Xa is 100-1000 fold. In addition, the “inactivation of the anticoagulant activity by protamine (in words)” value in experiment [1] is “effectively inactivate”. Also, in the experiment on thrombin (initial studies), the “enhancement of the ability of anti-thrombin III to inhibit thrombin (in words)” value is “did not enhance”. Moreover, the “fold less active than heparin in enhancing anti-thrombin III mediated anti-thrombin activity” value in the experiment on thrombin (two different chromogenic assays, data not shown) is 700-7000 fold.
Regarding Maltohexaose SO4, the “anticoagulant activity (in words)” value in the experiment on human plasma was “quite effective anticoagulants”. For the same molecule, the “Increase in Coagulation Time” value with human plasma (APTT) is 5.85 s/µg.
Consider Laminariheptaose SO4, for which, in the experiment with human plasma (APTT), the “Increase in Coagulation Time” value is 0.5 s/µg.
For Cellopentaose SO4, in the experiment on human plasma (APTT), the “Increase in Coagulation Time” value was 3.5 s/µg.
Same read-out and setting: under Isomaltohexaose SO4 stands 6.56 s/µg.
